Assay results from patent US20230302082A1, “AGENT FOR REVERSIBLE OPENING OF NEURAL VASCULAR BARRIER” (YAMAGUCHI UNIVERSITY, priority 2020, published 2023).
Where a name gives a salt, the structure may show the parent alone.

Legend:
[1] = tested on: mouse brain microvascular endothelial cell line bEnd.3 cells; test: Immunofluorescence staining and quantification of claudin-5 signals on the cell membranes of monolayer-cultured bEnd.3 cells; type: cell-based
Experimental: (§1) In an in vitro system, mouse brain microvascular endothelial cell line bEnd.3 cells (obtained from the American Type Culture Collection) were grown as a monolayer at 37° C. under 5% CO^2 in Dulbecco's modified Eagle's medium containing 4500 mg/L glucose (Sigma-Aldrich) supplemented with 10% fetal bovine serum (FBS). CypA (200, 300 or 400 ng/ml: BioVendor R&D) was added to the culture supernatant of the monolayer-cultured bEnd.3 cells, followed by incubation for 3 hours. Subsequently, expression changes of claudin-5 in the bEnd.3 cells were observed by immunofluorescence staining, and claudin-5 signals on the cell membranes were quantified. Further, TEER, an index of vascular barrier function, was measured in the bEnd.3 cell monolayer.
The immunofluorescence staining was performed as follows. First, the cultured bEnd.3 cells were fixed with 100% methanol for 5 min at room temperature and incubated with 10% non-immune goat serum (Invitrogen) for 30 minutes to block non-specific binding of antibodies. Next, the cells were reacted with rabbit polyclonal antibodies against claudin-5 (1/25 dilution, Invitrogen) at 4° C. overnight. After washing with phosphate-buffered saline (PBS), the cells were incubated with Alexa Fluor 488 goat anti-rabbit IgG (1/200 dilution, Eugene) for 1 hour at room temperature under light protection. […] For a quantitative analysis, fluorescence intensities of claudin-5 on the plasma membranes were measured using an operation menu installed in LSMS Pascal6, 7.3. […] Fluorescence intensities were then quantified at points on the cell membranes that intersected the drawn straight lines. The mean value of the fluorescence intensities was calculated as an expression level of claudin-5 on the cell membranes of each monolayer at approximately 80 points. […]
The immunofluorescence staining, the quantification of the claudin-5 signals on the cell membranes, and the measurement of TEER in the bEnd.3 cell monolayer were performed in the same manner as in Example 1 except that CypA (300 ng/ml: BioVendor R&D) lacking PPlase activity was used as CypA. […]

bEnd.3 cell monolayer = test: TEER (index of vascular barrier function) of the bEnd.3 cell monolayer; type: cell-based, mouse
Experimental: as §1
The immunofluorescence staining, the quantification of the claudin-5 signals on the cell membranes, and the measurement of TEER in the bEnd.3 cell monolayer were performed in the same manner as in Example 1 except that CypA (300 ng/ml: BioVendor R&D) lacking PPlase activity was used as CypA.
In order to evaluate the opening effect of CypA on the neural vascular barrier over time, the same experiment as in Example 1 was performed while changing the treatment time of CypA. Specifically, CypA at a concentration of 300 ng/ml was applied to the cells, followed by incubation for 1, 3, 6, 9, and 12 hours. Then, the cells were subjected to the immunofluorescence staining, the quantification of the claudin-5 signals on the cell membranes, and the measurement of TEER in the bEnd.3 cell monolayer.

[2] = tested on: mouse retinal vasculature; test: Claudin-5 expression in endothelial cell membranes of the retinal vasculature after intravenous CypA (immunofluorescence); type: in vivo; conditions: mouse retina, single intravenous injection 200 μg/kg
Description: Based on the results of Example 1, a change in the barrier function caused by CypA administration was examined in vivo using a mouse retinal tissue. Note that the retina is a tissue that is formed as an outgrowth of the central neural system during the process of ontogeny and is a part of the central neural system like the brain. Since the vascular system of the retina can be two-dimensionally observed and evaluated over the entire length in the longitudinal direction, the retina was used as an analysis material representing the central neural system in the present example.
(§2) Seven-week-old male C57B6/N mice (Japan SLC, Inc.) were given a single intravenous injection (200 μg/kg) of CypA. A change in the expression level of claudin-5 localized in the endothelial cell membranes of the retinal vasculature and permeability of the retinal vasculature were measured 3, 6, and 24 hours after the […] injection. The change in the expression of claudin-5 was measured by immunofluorescence staining using the rabbit polyclonal antibodies against claudin-5 in the same manner as in Example 1. The above-mentioned measurement of the permeability of the retinal vasculature was performed as follows.

[3] = tested on: mouse retinal vasculature; test: Permeability of the retinal vasculature (leakage of injected tracer dye, index of blood-retinal barrier function); type: in vivo; conditions: mouse retina, single intravenous injection 200 μg/kg
Experimental: as §2
First, 500 μL of PBS containing 100 μg/mL Hoechst dye H33258 (molecular weight 534 Da, Sigma-Aldrich) and 1 mg/mL tetramethylrhodamine-conjugated lysine-fixable dextran (molecular weight 10,000 Da, Thermo Fisher Scientific) was injected into the left ventricle as a tracer dye. After injection of the Hoechst dye, eyes were enucleated and immediately fixed with 4% paraformaldehyde (PFA) for 15 min at room temperature under light protection, thereby preparing retinal flat mounts. They were mounted in a fluorescent mounting medium, and leakage of the injected tracer was observed under a Zeiss LSM510 META laser confocal microscope (Carl Zeiss AG) to measure the permeability of the retinal vasculature (an index of blood-retinal barrier function). Experiments were performed independently 3 times or more.

neural vascular barrier = test: Uptake of intravenously administered doxorubicin into cerebrum, liver and kidney with or without preadministration of CypA (doxorubicin fluorescence); type: in vivo, mouse
Experimental: Further, fluorescence emitted by doxorubicin was used to evaluate the uptake of doxorubicin into the cerebrum, the liver and the kidney. […] Fujifilm Wako Pure Chemical Corp.), an anticancer drug with low intracerebral penetration, was injected into caudal veins of mice with or without pre-injection of CypA (200 μg/kg). Pre-injection of CypA was performed intravenously 3 hours prior to the injection of doxorubicin. Mice were sacrificed 3 hours after the injection of doxorubicin hydrochloride, and the cerebrum, the liver, and the kidney were collected and embedded and frozen in OCT compound. Next, frozen sections of 30 μm thickness were prepared and observed under an LSM710 laser confocal microscope (Carl Zeiss AG).

## Cyclophilin A [CypA]
[1]; CypA 300 ng/ml, 3 hours after treatment (FIG. 3a, 3b)
  claudin-5 level on the cell membranes: decreased significantly
[1]; CypA 300 ng/ml, 6 hours (FIG. 3a, 3b)
  claudin-5 level on the cell membranes: recovered to the level prior to the CypA stimulation
[1]; CypA 200, 300 or 400 ng/ml, 3 hours after treatment (FIG. 1a, 1B)
  claudin-5 level on the cell membranes: significantly reduced
bEnd.3 cell monolayer; CypA 300 ng/ml, 3 hours after treatment (FIG. 3c)
  barrier function (TEER): significantly decreased
bEnd.3 cell monolayer; CypA 300 ng/ml, 6 hours (FIG. 3c)
  barrier function (TEER): recovered to the state prior to the CypA stimulation
bEnd.3 cell monolayer; CypA 200, 300 or 400 ng/ml, 3 hours after treatment (FIG. 1c)
  barrier function (TEER): significant reduction in the barrier function
[2]; 3 hours (FIG. 4a)
  expression level of claudin-5 in the cell membranes of the peripheral microvascular endothelial cells: decrease
[2]; 24 hours (FIG. 4a)
  expression level of claudin-5 in the cell membranes of the peripheral microvascular endothelial cells: recovered to a physiological level
[3]; 3 hours (FIG. 4b)
  leakage of the injected tracer dye: increased
[3]; 6 hours (FIG. 4b)
  leakage of the injected tracer dye: decreased after 6 hours as compared with after 3 hours
[3]; 24 hours (FIG. 4b)
  leakage of the injected tracer dye: returned to an undetectable physiological level
Neural vascular barrier; mouse cerebrum, CypA 200 μg/kg i.v. 3 hours before doxorubicin hydrochloride 6.25 mg/kg i.v.
  effect of CypA preadministration on delivery of doxorubicin to the neural tissue parenchyma: allowed the intravenously administered doxorubicin to pass through the neural vascular barrier and reach the neural tissue parenchyma
Neural vascular barrier; mouse, CypA 200 μg/kg i.v. 3 hours before doxorubicin hydrochloride 6.25 mg/kg i.v.
  effect of CypA pre-injection on intensities of doxorubicin fluorescence signals in the liver and the kidney: not significantly affected

## COc1cccc2c1C(=O)c1c(O)c3c(c(O)c1C2=O)C[C@@](O)(C(=O)CO)C[C@@H]3O[C@H]1C[C@H](N)[C@H](O)[C@H](C)O1 [doxorubicin, Doxorubicin hydrochloride]
Neural vascular barrier; mouse, doxorubicin hydrochloride 6.25 mg/kg i.v., 3 hours after injection, with or without pre-injection of CypA
  fluorescent signals of doxorubicin in the liver and the kidney: strong fluorescent signals of doxorubicin were detected
Neural vascular barrier; mouse, doxorubicin hydrochloride 6.25 mg/kg i.v., 3 hours after injection, with preadministration of CypA 200 μg/kg i.v. 3 hours before
  doxorubicin fluorescence signal in the cerebrum: significant doxorubicin fluorescence signals were detected
Neural vascular barrier; mouse, doxorubicin hydrochloride 6.25 mg/kg i.v., 3 hours after injection, without preadministration of CypA
  doxorubicin fluorescence signal in the cerebrum: no doxorubicin fluorescence signal was detected
